Measured values reported in US20140221499A1, “NOVEL RODENT CONTROL AGENTS AND USES THEREOF” (priority 2011, published 2014).

How the values were obtained:
Format in all cases: cell-based
mTAAR4 = biological target: T1, mTAAR4 (Mus musculus, UniProt Q5QD15); assay: CRE-SEAP reporter gene assay in HEK293 cells transfected with mTAAR4 (fusion with N-terminal sequence of bovine rhodopsin, 'Rho tag'); settings: FIG. 11B, mTAAR4 required a 'Rho tag' (N-terminal bovine rhodopsin sequence, first 20 amino acids), EC50 ± s.e.m., 4-parameter Hill equation
T1 construct: Full Taar coding regions were cloned into pcDNA3.1; expressed in transfected cells; host or cells: HEK293
T1 sequence (Q5QD15 with tags, fused parts or gaps): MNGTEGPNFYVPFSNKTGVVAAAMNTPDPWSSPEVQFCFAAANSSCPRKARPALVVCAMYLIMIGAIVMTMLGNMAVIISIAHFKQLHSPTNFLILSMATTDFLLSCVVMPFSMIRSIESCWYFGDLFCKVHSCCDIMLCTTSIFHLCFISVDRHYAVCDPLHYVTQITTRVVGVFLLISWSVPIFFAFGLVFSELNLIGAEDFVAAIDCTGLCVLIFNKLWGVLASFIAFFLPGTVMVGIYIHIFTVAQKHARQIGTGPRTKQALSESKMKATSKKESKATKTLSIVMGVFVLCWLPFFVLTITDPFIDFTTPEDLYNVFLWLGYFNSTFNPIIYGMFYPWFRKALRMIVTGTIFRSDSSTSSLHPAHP
Procedure: (A) HEK293 cells were transfected with TAAR4 and reporter plasmids, incubated with urine extracts of species indicated, and assayed for reporter activity (triplicates±SD). […] TAAR4 was expressed as a fusion protein with an N-terminal sequence of bovine rhodopsin, which provided enhanced signal (24). […] Urine (diluted 300- or 100-fold) or urine extracts (diluted 30-, 10-, or 3-fold) of species indicated were tested (triplicates±s.d.).
FIG. 11 illustrates the dose-dependent responses of TAARs to amines. […] EC50 values (±s.e.m, bottom right) were calculated using SigmaPlot (Systat Software) and a 4-parameter Hill equation.
Full Taar coding regions were cloned into pcDNA3.1-(Invitrogen) with or without a 5′ DNA extension of 69 bp encoding the first 20 amino acids of bovine rhodopsin followed by a cloning linker ([sequence]). […] Fluorescence was measured on an EnVision plate reader (Perkin Elmer) and SEAP activity graphed as relative fluorescence of a phosphatase substrate.
(§1) HEK293 cells were co-transfected with TAAR expression plasmids and a cAMPdependent reporter gene encoding secreted alkaline phosphatase (CRE-SEAP). Transfected cells were incubated with urine extracts from different mammalian species, and phosphatase activity was quantified with a fluorescent substrate as a reporter for TAAR activation.

mouse TAAR4 = biological target: T2, mouse TAAR4 (Mus musculus, UniProt Q5QD15); assay: TAAR4 CRE-SEAP reporter gene assay in transfected HEK293 cells; settings: 10 μM
T2 construct: Full Taar coding regions were cloned into pcDNA3.1-(Invitrogen); expressed in transfected cells; host or cells: HEK293
T2 sequence (Q5QD15 1-347): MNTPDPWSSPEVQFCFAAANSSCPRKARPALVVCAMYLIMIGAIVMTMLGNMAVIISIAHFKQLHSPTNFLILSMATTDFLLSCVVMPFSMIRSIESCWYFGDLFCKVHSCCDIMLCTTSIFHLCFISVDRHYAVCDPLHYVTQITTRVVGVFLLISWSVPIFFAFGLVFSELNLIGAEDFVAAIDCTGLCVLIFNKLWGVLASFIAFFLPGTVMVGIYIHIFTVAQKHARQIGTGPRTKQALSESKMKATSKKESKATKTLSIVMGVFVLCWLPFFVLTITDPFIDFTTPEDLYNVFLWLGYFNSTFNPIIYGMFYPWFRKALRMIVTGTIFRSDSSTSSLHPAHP
Procedure: as §1
Test urines were diluted in serum-free media containing penicillin G (100 Units/ml, Invitrogen) and streptomycin sulfate (100 mg/ml, Invitrogen). SEAP activity is measured as fluorescence resulting from dephosphorylation of a substrate, 4-methylumbelliferyl phosphate. Fluorescence values were obtained using an EnVision plate reader (Perkin Elmer) and are reported directly without normalization.

mTAAR7f-SS = biological target: T3, mTAAR7f-SS (Mus musculus, UniProt Q5QD08, C133S/Y132S); assay: Reporter gene assay on mutant receptor mTAAR7f-SS; settings: mutant vs mTAAR7f
T3 construct: Full Taar coding regions were cloned into pcDNA3.1-(Invitrogen); Rho tag (first 20 aa of bovine rhodopsin + linker); expressed in transfected cells; host or cells: HEK293
T3 sequence (Q5QD08 1-358 Y132S/C133S): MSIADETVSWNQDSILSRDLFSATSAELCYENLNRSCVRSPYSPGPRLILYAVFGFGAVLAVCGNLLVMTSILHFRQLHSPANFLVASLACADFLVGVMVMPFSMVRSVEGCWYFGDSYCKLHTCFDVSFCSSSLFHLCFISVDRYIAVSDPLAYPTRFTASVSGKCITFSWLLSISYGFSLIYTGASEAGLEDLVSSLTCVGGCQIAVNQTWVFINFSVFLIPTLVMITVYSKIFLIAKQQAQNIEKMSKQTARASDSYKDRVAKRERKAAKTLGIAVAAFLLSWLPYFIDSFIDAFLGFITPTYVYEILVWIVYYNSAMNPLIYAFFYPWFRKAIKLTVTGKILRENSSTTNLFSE
Procedure: To test this, we created mutant receptors in which sequences of mTAAR7e were swapped into mTAAR7f and vice versa. Position 132^3.37 is a tyrosine in mTAAR7f and the other three receptors that detect 10, but a serine in mTAAR7e and a cysteine in rTAAR7h, the two receptors that detect 6. Furthermore, position 133^3.38 is a cysteine in mTAAR7f but a serine in mTAAR7e and rTAAR7h. We altered positions 132^3.37 and 133^3.38 by mutation of mTAAR7e (‘mTAAR7e-YC’) and mTAAR7f (‘mTAAR7f-SS’) and examined odor responses of these mutants using the cellular reporter gene assay (FIG. 9).
TAAR functional assays. Full Taar coding regions were cloned into pcDNA3.1-(Invitrogen) with or without a 5′ DNA extension of 69 bp encoding the first 20 amino acids of bovine rhodopsin followed by a cloning linker ([…]). Point mutations were introduced in mTAAR7e and mTAAR7f by overlap extension PCR. Functional assays were performed as described (40, 42). Fluorescence was measured on an EnVision plate reader (Perkin Elmer) and SEAP activity graphed as relative fluorescence of a phosphatase substrate.

| SMILES | EC50 (mTAAR4) [µM] | TAAR4 activation (mouse TAAR4) | reduced affinity of mTAAR7f-SS (mTAAR7f-SS) [fold] |
| --- | --- | --- | --- |
| NCCc1ccccc1 [2-phenylethylamine] | 7.5 ± 3.7 | activates TAAR4 |  |
| CN(C)C1CCCCC1 [ligand 10, N,N-dimethylcyclohexylamine] |  |  | ~100 |
